Data on 21 compounds can be found in the Kinase Knowledgebase extract (Sharma et al. 2016).

The target in test [1] is PIK3CD (Human) (UniProt O00329). As to the kind of experiment: Cell-Based Assay. As to conditions: raji.
In test [2] the target is PIK3CB (Human) (UniProt P42338). Put plainly: Enzyme Assay.
Test [3] has as its target PIK3CG (human) (UniProt P48736). Put plainly: Enzyme Assay.
The target of test [4] is PIK3CD (Human) (UniProt O00329). Put plainly: Enzyme Assay.
The target of test [5] is PIK3CA (human) (UniProt P42336). Put plainly: Enzyme Assay.

SMILES strings stand for the structures.

Chain of PIK3CA (human) (P42336 whole entry, looked up): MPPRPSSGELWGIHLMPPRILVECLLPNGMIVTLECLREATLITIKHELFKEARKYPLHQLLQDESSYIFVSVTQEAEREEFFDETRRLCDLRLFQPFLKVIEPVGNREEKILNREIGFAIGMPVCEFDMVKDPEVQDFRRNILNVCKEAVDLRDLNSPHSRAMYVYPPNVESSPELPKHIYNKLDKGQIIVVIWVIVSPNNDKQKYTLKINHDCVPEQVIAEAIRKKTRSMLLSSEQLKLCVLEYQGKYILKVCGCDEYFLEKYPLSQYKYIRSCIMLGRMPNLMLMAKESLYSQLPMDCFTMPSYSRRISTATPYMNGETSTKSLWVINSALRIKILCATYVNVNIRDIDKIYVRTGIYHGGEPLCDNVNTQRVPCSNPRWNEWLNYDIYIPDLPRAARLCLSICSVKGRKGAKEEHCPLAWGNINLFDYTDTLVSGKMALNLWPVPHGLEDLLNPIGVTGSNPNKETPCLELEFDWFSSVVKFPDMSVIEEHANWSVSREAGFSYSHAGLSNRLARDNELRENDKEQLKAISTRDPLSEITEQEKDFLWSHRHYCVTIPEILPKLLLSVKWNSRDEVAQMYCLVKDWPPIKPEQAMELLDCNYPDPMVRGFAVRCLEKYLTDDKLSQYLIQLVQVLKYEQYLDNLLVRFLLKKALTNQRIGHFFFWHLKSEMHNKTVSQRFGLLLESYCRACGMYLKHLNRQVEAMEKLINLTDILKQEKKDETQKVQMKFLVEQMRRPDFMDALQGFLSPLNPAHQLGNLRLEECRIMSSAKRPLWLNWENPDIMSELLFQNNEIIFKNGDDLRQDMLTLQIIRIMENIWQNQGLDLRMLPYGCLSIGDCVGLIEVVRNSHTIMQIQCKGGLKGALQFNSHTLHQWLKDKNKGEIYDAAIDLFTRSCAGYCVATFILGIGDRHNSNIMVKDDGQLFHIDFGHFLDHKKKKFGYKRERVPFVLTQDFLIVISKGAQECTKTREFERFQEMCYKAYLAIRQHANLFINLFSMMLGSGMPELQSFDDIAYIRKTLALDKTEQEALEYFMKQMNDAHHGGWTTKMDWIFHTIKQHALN
Chain of PIK3CG (human) (P48736 whole entry, looked up): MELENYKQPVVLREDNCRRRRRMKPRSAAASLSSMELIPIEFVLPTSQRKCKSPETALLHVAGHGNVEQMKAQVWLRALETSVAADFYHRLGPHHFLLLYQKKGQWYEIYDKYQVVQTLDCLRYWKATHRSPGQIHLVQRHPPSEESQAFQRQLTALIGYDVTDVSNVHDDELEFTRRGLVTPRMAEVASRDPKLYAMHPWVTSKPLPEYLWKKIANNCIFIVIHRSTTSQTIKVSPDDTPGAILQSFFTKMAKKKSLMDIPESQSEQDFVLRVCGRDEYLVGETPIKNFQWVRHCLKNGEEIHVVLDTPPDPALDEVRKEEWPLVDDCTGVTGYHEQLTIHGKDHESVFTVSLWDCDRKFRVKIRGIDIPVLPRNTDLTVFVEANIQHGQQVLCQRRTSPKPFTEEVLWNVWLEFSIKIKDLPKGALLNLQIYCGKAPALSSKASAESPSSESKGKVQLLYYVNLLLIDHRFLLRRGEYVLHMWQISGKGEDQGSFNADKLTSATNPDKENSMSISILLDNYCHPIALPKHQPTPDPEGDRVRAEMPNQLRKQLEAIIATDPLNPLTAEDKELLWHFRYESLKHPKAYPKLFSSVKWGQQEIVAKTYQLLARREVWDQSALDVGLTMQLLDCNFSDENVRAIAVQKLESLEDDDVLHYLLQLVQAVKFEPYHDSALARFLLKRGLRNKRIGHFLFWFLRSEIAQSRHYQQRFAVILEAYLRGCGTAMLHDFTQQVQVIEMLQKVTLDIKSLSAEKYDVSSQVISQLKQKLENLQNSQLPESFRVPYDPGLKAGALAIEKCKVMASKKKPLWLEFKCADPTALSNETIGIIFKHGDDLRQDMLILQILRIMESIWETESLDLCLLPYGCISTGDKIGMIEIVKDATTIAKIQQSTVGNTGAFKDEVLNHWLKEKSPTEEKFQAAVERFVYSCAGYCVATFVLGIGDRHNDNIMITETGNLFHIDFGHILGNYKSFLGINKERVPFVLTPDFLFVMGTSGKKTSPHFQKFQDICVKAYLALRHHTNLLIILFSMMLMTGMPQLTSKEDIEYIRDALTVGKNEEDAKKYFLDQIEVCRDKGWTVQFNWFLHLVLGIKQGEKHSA
Chain of PIK3CB (Human) (P42338 whole entry, looked up): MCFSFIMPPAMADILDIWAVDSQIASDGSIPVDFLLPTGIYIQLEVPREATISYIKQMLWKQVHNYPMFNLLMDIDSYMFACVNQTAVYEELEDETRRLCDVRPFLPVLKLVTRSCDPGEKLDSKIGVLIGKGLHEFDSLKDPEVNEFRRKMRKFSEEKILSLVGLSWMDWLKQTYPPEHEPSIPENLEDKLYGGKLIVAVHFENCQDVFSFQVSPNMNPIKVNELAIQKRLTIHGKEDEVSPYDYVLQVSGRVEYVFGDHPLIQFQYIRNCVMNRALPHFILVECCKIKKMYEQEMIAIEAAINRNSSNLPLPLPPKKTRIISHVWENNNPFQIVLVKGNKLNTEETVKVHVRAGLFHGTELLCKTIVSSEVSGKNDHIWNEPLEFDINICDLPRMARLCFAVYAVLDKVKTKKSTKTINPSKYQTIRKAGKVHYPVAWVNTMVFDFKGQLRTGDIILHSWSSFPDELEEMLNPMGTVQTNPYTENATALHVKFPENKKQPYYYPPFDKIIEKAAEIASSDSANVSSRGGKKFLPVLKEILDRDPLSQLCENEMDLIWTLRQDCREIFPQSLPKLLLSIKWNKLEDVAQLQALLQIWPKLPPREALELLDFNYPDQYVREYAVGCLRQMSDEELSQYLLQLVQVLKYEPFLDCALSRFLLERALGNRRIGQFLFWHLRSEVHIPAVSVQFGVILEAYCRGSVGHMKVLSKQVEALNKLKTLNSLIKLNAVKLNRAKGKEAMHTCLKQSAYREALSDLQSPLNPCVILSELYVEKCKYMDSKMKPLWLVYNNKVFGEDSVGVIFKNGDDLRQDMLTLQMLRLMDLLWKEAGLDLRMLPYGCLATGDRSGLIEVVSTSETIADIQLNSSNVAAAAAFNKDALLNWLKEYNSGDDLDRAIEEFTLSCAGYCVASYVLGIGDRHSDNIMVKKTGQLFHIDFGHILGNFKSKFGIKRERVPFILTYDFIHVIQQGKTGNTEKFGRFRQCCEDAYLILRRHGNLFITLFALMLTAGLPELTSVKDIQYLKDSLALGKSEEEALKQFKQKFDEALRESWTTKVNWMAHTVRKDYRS
Chain of PIK3CD (Human) (O00329 whole entry, looked up): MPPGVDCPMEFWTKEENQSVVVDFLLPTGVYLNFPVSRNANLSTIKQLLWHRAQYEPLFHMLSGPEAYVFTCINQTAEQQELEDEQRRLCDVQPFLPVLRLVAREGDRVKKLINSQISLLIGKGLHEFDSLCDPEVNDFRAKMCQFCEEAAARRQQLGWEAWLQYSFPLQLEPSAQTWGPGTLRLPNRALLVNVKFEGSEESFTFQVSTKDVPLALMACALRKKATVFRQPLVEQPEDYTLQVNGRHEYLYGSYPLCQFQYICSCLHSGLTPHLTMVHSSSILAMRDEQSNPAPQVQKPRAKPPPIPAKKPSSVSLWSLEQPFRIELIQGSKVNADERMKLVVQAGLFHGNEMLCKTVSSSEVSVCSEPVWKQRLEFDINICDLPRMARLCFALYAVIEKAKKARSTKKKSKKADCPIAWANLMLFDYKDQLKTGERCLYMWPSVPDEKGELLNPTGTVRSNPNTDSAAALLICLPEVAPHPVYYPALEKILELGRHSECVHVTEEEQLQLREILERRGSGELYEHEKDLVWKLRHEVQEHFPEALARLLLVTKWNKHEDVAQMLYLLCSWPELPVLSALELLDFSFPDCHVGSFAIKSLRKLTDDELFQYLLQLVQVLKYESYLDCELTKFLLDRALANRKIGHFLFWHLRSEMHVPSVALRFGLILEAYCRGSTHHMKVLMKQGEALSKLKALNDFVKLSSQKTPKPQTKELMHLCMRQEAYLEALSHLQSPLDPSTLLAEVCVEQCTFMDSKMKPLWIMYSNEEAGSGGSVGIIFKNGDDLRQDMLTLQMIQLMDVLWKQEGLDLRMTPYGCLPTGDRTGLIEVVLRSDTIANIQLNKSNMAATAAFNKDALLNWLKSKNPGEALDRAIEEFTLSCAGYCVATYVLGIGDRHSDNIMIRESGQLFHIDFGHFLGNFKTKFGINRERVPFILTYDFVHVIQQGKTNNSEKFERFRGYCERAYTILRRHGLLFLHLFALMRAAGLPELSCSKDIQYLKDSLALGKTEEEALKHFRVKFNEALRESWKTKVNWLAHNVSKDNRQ

For `C[C@H](NC(=O)c1c(N)nn2cccnc12)c1cc2cccc(Cl)c2c(=O)n1CC(O)CO` (some centres not stated), the IC50 in test [1] was less than 100 nM; in test [2] it was less than 100 nM; in test [3] it was 100 to 1000 nM; in test [4] it was 100 to 1000 nM.
For the compound `C[C@H](NC(=O)c1nc(-c2ccc(NS(C)(=O)=O)cc2)cnc1N)c1cc2cccc(Cl)c2c(=O)n1-c1ccccc1`, the half-inhibitory concentration (IC50) in test [5], in test [2] and in test [4] was not below 10000 nM throughout.
Regarding `C[C@H](NC(=O)c1nc(-c2ccc(S(C)(=O)=O)cc2)cnc1N)c1cc2cccc(Cl)c2c(=O)n1-c1ccccc1`, the IC50 in test [5], in test [2] and in test [4] was not below 10000 nM in each case.
As for `C[C@H](NC(=O)c1c(N)nn2cccnc12)c1cc2cccc(Cl)c2c(=O)n1-c1ccccc1`, the figures for the IC50 in test [1], in test [2] and in test [4] were less than 100 nM, 100 to 1000 nM and 100 to 1000 nM, respectively.
In the case of `C[C@H](NC(=O)c1c(N)nn2cccnc12)c1cc2cccc(Cl)c2c(=O)n1CCN(C)C`, the IC50 in test [1] is less than 100 nM; in test [5], not below 10000 nM; in test [2], less than 100 nM; in test [4], less than 100 nM.
Consider `C[C@H](NC(=O)c1c(N)nn2cccnc12)c1cc2cccc(-c3cccnc3)c2c(=O)n1-c1ccccc1`, for which the IC50 in test [1] is less than 100 nM; in test [2] it was not below 10000 nM; in test [3] it was 100 to 1000 nM; in test [4], 100 to 1000 nM.
As for `Cc1cnc(C(=O)N[C@@H](C)c2cc3cccc(C(F)(F)F)c3c(=O)n2-c2ccccc2)c(N)n1`, the 50% inhibitory concentration (IC50) in test [5], in test [2] and in test [4] was not below 10000 nM in each case.
Turning to `C[C@H](NC(=O)c1nc(-c2cccc(O)c2)cnc1N)c1cc2cccc(Cl)c2c(=O)n1-c1ccccc1`, the IC50 in test [1] was 100 to 1000 nM; in test [5], not below 10000 nM; in test [4] it was not below 10000 nM.
As for `C[C@H](NC(=O)c1c(N)nn2cccnc12)c1nc2cccc(Cl)c2c(=O)n1-c1ccccc1`, the IC50 was less than 100 nM in test [1], 100 to 1000 nM in test [2], less than 100 nM in test [3] and less than 100 nM in test [4].
`Cc1c([C@H](C)NC(=O)c2c(N)nn3cccnc23)n(-c2ccccc2)c(=O)c2c(F)cccc12`: the concentration for half-maximal inhibition (IC50) was less than 100 nM in test [1], 100 to 1000 nM in test [2], less than 100 nM in test [3] and 100 to 1000 nM in test [4].
Regarding `C[C@H](NC(=O)c1c(N)nn2cccnc12)c1cc2cccc(Cl)c2c(=O)n1CCNCCO`, the IC50 in test [2] is less than 100 nM; in test [4], 100 to 1000 nM.
In the case of `C[C@H](NC(=O)c1c(N)nn2cccnc12)c1cc2cccc(Cl)c2c(=O)n1CC(=O)N(C)C`, the IC50 in test [5], in test [3] and in test [4] was not below 10000 nM in each case.
Take `C[C@H](NC(=O)c1nc(-c2cccc(NS(=O)(=O)N(C)C)c2)cnc1N)c1cc2cccc(Cl)c2c(=O)n1-c1ccccc1`: the IC50 in test [1] was less than 100 nM; in test [2], 100 to 1000 nM; in test [3], less than 100 nM; in test [4], 100 to 1000 nM.
For `C[C@H](NC(=O)c1c(N)nn2cccnc12)c1cc2scc(-c3cnn(C)c3)c2c(=O)n1-c1ccccc1`, the IC50 in test [5], in test [2] and in test [4] was not below 10000 nM in each case.
As for `COc1cc(-c2cccc3cc([C@H](C)NC(=O)c4c(N)ncc5cccnc45)n(-c4ccccc4)c(=O)c23)ccn1`, the IC50 in test [1] is less than 100 nM; in test [2], not below 10000 nM; in test [3] it was less than 100 nM; in test [4], 100 to 1000 nM.
On to `C=CCn1c([C@H](C)NC(=O)c2c(N)nn3cccnc23)cc2cccc(Cl)c2c1=O`, for which the 50% inhibitory concentration (IC50) was less than 100 nM in test [1], less than 100 nM in test [2], 100 to 1000 nM in test [3] and 100 to 1000 nM in test [4].
On to `Cc1ccn2nc(N)c(C(=O)N[C@@H](C)c3cc4cccc(Cl)c4c(=O)n3-c3ccccc3)c2n1`, for which the IC50 in test [1] is less than 100 nM; in test [2] it was less than 100 nM; in test [3], 100 to 1000 nM; in test [4] it was 100 to 1000 nM.
As for `COc1cncc(-c2cccc3cc([C@H](C)NC(=O)c4c(N)nn5cccnc45)n(-c4ccccc4)c(=O)c23)c1`, the IC50 in test [1] is less than 100 nM; in test [2], not below 10000 nM; in test [3], less than 100 nM; in test [4], 100 to 1000 nM.
On to `C[C@H](NC(=O)c1nc(-c2cscn2)cnc1N)c1cc2cccc(Cl)c2c(=O)n1-c1ccccc1`, for which the 50% inhibitory concentration (IC50) in test [1] was 100 to 1000 nM; in test [3] it was 100 to 1000 nM; in test [4], not below 10000 nM.
Consider `C[C@H](NC(=O)c1nccnc1N)c1cc2cccc(Cl)c2c(=O)n1-c1ccccc1`, for which the IC50 in test [1] is less than 100 nM; in test [2], 100 to 1000 nM; in test [3], 100 to 1000 nM; in test [4], less than 100 nM.
`C[C@H](NC(=O)c1nc(-c2csc(S(C)(=O)=O)n2)cnc1N)c1cc2cccc(Cl)c2c(=O)n1-c1ccccc1`: the half-inhibitory concentration (IC50) in test [5] and in test [4] was not below 10000 nM each time.
